Read-outs that look alike come from different tables or passages of the source.
Experiments:
[1] = test system: Fridericia-corrected QTc interval; conditions: 32 mg, 15 minute infusion, cited from earlier work
patients with AKI [2] = test system: patients with AKI; design: species or system human; conditions: in vivo
[3] = test system: patients without AKI on admission or prior to receiving drug; assay: Anti-emetic usage and AKI risk in first ICU encounter: usage, max KDIGO category, binary logistic regression (Example 3); assay type: in vivo, human; conditions: for MAX KDIGO AKI Category 0 (%) / MAX KDIGO AKI Category 0, number of patients / MAX KDIGO AKI Category 1 (%) / MAX KDIGO AKI Category 1, number of patients / MAX KDIGO AKI Category 2 (%) / MAX KDIGO AKI Category 2, number of patients / MAX KDIGO AKI Category 3 (%) / MAX KDIGO AKI Category 3, number of patients: drug users, use before discharge/death or before AKI
Text: Study Population: The study population excludes patients with end-stage kidney disease and excludes patients with Acute Kidney Injury on admission or prior to receiving drug. […] Metoclopramide is primarily a dopamine D2 receptor antagonist anti-emetic. […] Prochlorperazine is primarily a dopamine receptor antagonist anti-emetic. […] This was a binary logistic regression with an outcome of experiencing any AKI within a first ICU encounter. The independent variable was use of anti-emetic prior to AKI (or before discharge if no AKI). […] The independent variable was use of anti-emetic prior to AKI (or before discharge if no AKI). […] The outcome was experiencing any AKI. The […] was the use of medication within the average time prior to AKI.

ICU patients = assay: Anti-emetic use and in-ICU death, logistic regression (Example 3); assay type: in vivo, human; conditions: outcome in-ICU death
patients with AKI [4] = assay: Validation in eICU database: propensity score matching, chi-square test of ICU mortality (Example 4); assay type: in vivo, human
patients with AKI [5] = conditions: human, in vivo
ICU patients with AKI = conditions: cited from earlier work
all ICU patients = conditions: cited from earlier work
Intestine of rats = conditions: cited from earlier work
patients with AKI [6] = conditions: human, in vivo; remark: listed apart in the source
[7] = outcome any AKI within first ICU encounter, use of anti-emetic prior to AKI (or before discharge if no AKI)
[8] = outcome any AKI, use of medication within the average time prior to AKI
[9] = use of medication within average time prior to AKI
[10] = after matching, 3423 patients in group
[11] = literature and/or clinical trials
[12] = 84 mg-kg in water by oral gavage 0.25d vs vehicle
[13] = gene negatively correlated with eGFR in human AKI cohort
[14] = rat intestine, 84 mg-kg oral gavage, 0.25d vs vehicle
[15] = outcome AKI Category 2 or 3 vs Category 0 or 1, use of anti-emetic prior to AKI (or before discharge)
[16] = use within average time prior to AKI and Apache Score on ICU admission

Cc1nccn1CC1CCc2c(c3ccccc3n2C)C1=O (centres unmarked) [Ondansetron]
maximum mean (upper limit of 90% CI) difference in QTcF from placebo after baseline-correction ([1]; at 20 minutes): 19.6 (21.5) msec | period in which prolongation of QTcF was observed after start of infusion [1]: 15 to 240 min | Coefficient (patients with AKI [2]): −0.035 | MAX KDIGO AKI Category 0 (%) [3]: 73.54% | MAX KDIGO AKI Category 0, number of patients [3]: 32,447 | MAX KDIGO AKI Category 1 (%) [3]: 13.92% | MAX KDIGO AKI Category 1, number of patients [3]: 6,143 | MAX KDIGO AKI Category 2 (%) [3]: 6.68% | MAX KDIGO AKI Category 2, number of patients [3]: 2,946 | MAX KDIGO AKI Category 3 (%) [3]: 5.87% | MAX KDIGO AKI Category 3, number of patients [3]: 2,588 | Odds Ratio [3, 7]: 0.403 | Odds Ratio [3, 8]: 0.906 | Odds Ratio ([3]; outcome any AKI, use of medication within the average time prior to AKI, listed as ondansetron): protective | Odds Ratio (ICU patients; [9]): 0.460 | Alive (patients) (patients with AKI [4]; [10]): 2993 | Death (patients) (patients with AKI [4]; [10]): 430 | ICU mortality (patients with AKI [4]; after propensity score matching, 3,423 patients per group): 12.56% | Number Need to Treat (NNT) (patients with AKI [4]; eICU patients, 95% confidence interval 23.61, 103.72): 38.46 | Death rate in eICU database (patients with AKI [5]): 124.87 per 1,000 patients | Reported for protecting effect in ICU patients with AKI (ICU patients with AKI; [11]): N | Reported for protecting effect in all ICU patients (all ICU patients; [11]): N | Genes (differentially expressed genes in bioset) (Intestine of rats; [12]): 1,815 | down-regulated genes (Intestine of rats; [12]): 722 | up-regulated genes (Intestine of rats; [12]): 1,093 | Gene expression fold change by Ondansetron treatment: AMACR (Intestine of rats; [13]): −2.38 | Gene expression fold change by Ondansetron treatment: CASP1 (Intestine of rats; [13]): −8.03 | Gene expression fold change by Ondansetron treatment: CPD (Intestine of rats; [13]): −2.4 | Gene expression fold change by Ondansetron treatment: GBP2 (Intestine of rats; [13]): −4.71 | Gene expression fold change by Ondansetron treatment: KPNA2 (Intestine of rats; [13]): 1.68 | Gene expression fold change by Ondansetron treatment: MCL1 (Intestine of rats; [13]): −3.07 | Gene expression fold change by Ondansetron treatment: MET (Intestine of rats; [13]): −2.32 | Gene expression fold change by Ondansetron treatment: TFPI (Intestine of rats; [13]): 4.25 | gene expression fold change: Axin2 (Intestine of rats; [14]): 2.12 | gene expression fold change: Birc2 (Intestine of rats; [14]): −2.85 | gene expression fold change: Casp3 (Intestine of rats; [14]): −4.18 | gene expression fold change: Cdc42 (Intestine of rats; [14]): −1.7 | gene expression fold change: Cdkn2b (Intestine of rats; [14]): −3.79 | gene expression fold change: Crk (Intestine of rats; [14]): −2.78 | gene expression fold change: Ctbp2 (Intestine of rats; [14]): −10.3 | gene expression fold change: Ctnna1 (Intestine of rats; [14]): −2.95 | gene expression fold change: Ctnnb1 (Intestine of rats; [14]): −6.88 | gene expression fold change: Cycs (Intestine of rats; [14]): −2.08 | gene expression fold change: Erbb2 (Intestine of rats; [14]): −2.24 | gene expression fold change: Fn1 (Intestine of rats; [14]): −10.3 | gene expression fold change: Gsk3b (Intestine of rats; [14]): 2.3 | gene expression fold change: Hdac1 (Intestine of rats; [14]): 1.52 | gene expression fold change: Itgb1 (Intestine of rats; [14]): −3.18 | gene expression fold change: Jak1 (Intestine of rats; [14]): −10.7 | gene expression fold change: Kras (Intestine of rats; [14]): −2.58 | gene expression fold change: Lamb2 (Intestine of rats; [14]): −4.03 | gene expression fold change: Mapk1 (Intestine of rats; [14]): −4.09 | gene expression fold change: Mapk3 (Intestine of rats; [14]): −1.98 | gene expression fold change: Mapk9 (Intestine of rats; [14]): −5.48 | gene expression fold change: Mecom (Intestine of rats; [14]): 1.46 | gene expression fold change: Met (Intestine of rats; [14]): −2.32 | gene expression fold change: Msh2 (Intestine of rats; [14]): −2.29 | gene expression fold change: Mtor (Intestine of rats; [14]): −1.75 | gene expression fold change: Pdgfrb (Intestine of rats; [14]): 1.49 | gene expression fold change: Pik3r1 (Intestine of rats; [14]): −3.77 | gene expression fold change: Plcg2 (Intestine of rats; [14]): −1.63 | gene expression fold change: Pld1 (Intestine of rats; [14]): −5.95 | gene expression fold change: Prkcb (Intestine of rats; [14]): −3.73 | gene expression fold change: Pten (Intestine of rats; [14]): −4.92 | gene expression fold change: Raf1 (Intestine of rats; [14]): 1.51 | gene expression fold change: Rb1 (Intestine of rats; [14]): −9.02 | gene expression fold change: Smo (Intestine of rats; [14]): −2.45 | gene expression fold change: Sos2 (Intestine of rats; [14]): 2.47 | gene expression fold change: Tgfa (Intestine of rats; [14]): −3.86 | gene expression fold change: Tgfb1 (Intestine of rats; [14]): −1.54 | gene expression fold change: Tgfb3 (Intestine of rats; [14]): 1.83 | gene expression fold change: Tpr (Intestine of rats; [14]): −1.93 | Death rate in MIMIC III database (patients with AKI [6]): 140.91 per 1,000 patients | average death rate (patients with AKI [6]): 14.1%

CC(=O)Nc1ccc(O)cc1 [Acetaminophen]
Coefficient (patients with AKI [2]): −0.040 | Death rate in eICU database (patients with AKI [5]): 123.47 per 1,000 patients | Reported for protecting effect in ICU patients with AKI (ICU patients with AKI; [11]): N | Reported for protecting effect in all ICU patients (all ICU patients; [11]): N | Death rate in MIMIC III database (patients with AKI [6]): 181.26 per 1,000 patients

NS(=O)(=O)c1cc(C(=O)O)c(NCc2ccco2)cc1Cl [Furosemide]
Coefficient (patients with AKI [2]): −0.036 | Death rate in eICU database (patients with AKI [5]): 120.87 per 1,000 patients | Reported for protecting effect in ICU patients with AKI (ICU patients with AKI; [11]): Y^8 | Reported for protecting effect in all ICU patients (all ICU patients; [11]): Y^7 | Death rate in MIMIC III database (patients with AKI [6]): 214.64 per 1,000 patients

COCCc1ccc(OCC(O)CNC(C)C)cc1 (centres unmarked) [Metoprolol]
Coefficient (patients with AKI [2]): −0.051 | Death rate in eICU database (patients with AKI [5]): 107.87 per 1,000 patients | Reported for protecting effect in ICU patients with AKI (ICU patients with AKI; [11]): N | Reported for protecting effect in all ICU patients (all ICU patients; [11]): Y^11 | Death rate in MIMIC III database (patients with AKI [6]): 169.99 per 1,000 patients

CCN(CC)CCNC(=O)c1cc(Cl)c(N)cc1OC [Metoclopramide]
MAX KDIGO AKI Category 0 (%) [3]: (72.54) % | MAX KDIGO AKI Category 0, number of patients [3]: 3,830 | MAX KDIGO AKI Category 1 (%) [3]: (14.05) % | MAX KDIGO AKI Category 1, number of patients [3]: 742 | MAX KDIGO AKI Category 2 (%) [3]: (6.91) % | MAX KDIGO AKI Category 2, number of patients [3]: 365 | MAX KDIGO AKI Category 3 (%) [3]: (6.50) % | MAX KDIGO AKI Category 3, number of patients [3]: 343 | Odds Ratio [3, 15]: 1.033 | Odds Ratio [3, 7]: 0.408 | Odds Ratio [3, 8]: 1.249 | Odds Ratio (ICU patients; [9]): 1.270 | Odds Ratio (ICU patients; [16]): 1.08 | Death rate in eICU database (patients with AKI [5]): 158.32 per 1,000 patients | Reported for protecting effect in ICU patients with AKI (ICU patients with AKI; [11]): N | Reported for protecting effect in all ICU patients (all ICU patients; [11]): N | Death rate in MIMIC III database (patients with AKI [6]): 248.67 per 1,000 patients

CN1CC[C@]23c4c5ccc(O)c4O[C@H]2[C@@H](O)C=C[C@H]3[C@H]1C5 [Morphine]
Coefficient (patients with AKI [2]): 0.198 | Death rate in eICU database (patients with AKI [5]): 234.81 per 1,000 patients | Reported for protecting effect in ICU patients with AKI (ICU patients with AKI): N | Reported for protecting effect in all ICU patients (all ICU patients): Y^1 | Death rate in MIMIC III database (patients with AKI [6]): 376.48 per 1,000 patients

O=C1Nc2ccc(Cl)cc2C(c2ccccc2Cl)=NC1O (centres unmarked) [Lorazepam]
Coefficient (patients with AKI [2]): 0.031 | Death rate in eICU database (patients with AKI [5]): 228.92 per 1,000 patients | Reported for protecting effect in ICU patients with AKI (ICU patients with AKI): N | Reported for protecting effect in all ICU patients (all ICU patients): N | Death rate in MIMIC III database (patients with AKI [6]): 285.59 per 1,000 patients

C[C@@H](O)[C@H]1C(=O)N2C(C(=O)O)=C(S[C@@H]3CN[C@H](C(=O)N(C)C)C3)[C@H](C)[C@H]12 [Meropenem]
Coefficient (patients with AKI [2]): 0.076 | Death rate in eICU database (patients with AKI [5]): 269.96 per 1,000 patients | Reported for protecting effect in ICU patients with AKI (ICU patients with AKI; [11]): Y^13 | Reported for protecting effect in all ICU patients (all ICU patients; [11]): Y^12 | Death rate in MIMIC III database (patients with AKI [6]): 460.50 per 1,000 patients

CN1CCN(CCCN2c3ccccc3Sc3ccc(Cl)cc32)CC1 [Prochlorperazine]
MAX KDIGO AKI Category 0 (%) [3]: (73.48) % | MAX KDIGO AKI Category 0, number of patients [3]: 2,488 | MAX KDIGO AKI Category 1 (%) [3]: (14.77) % | MAX KDIGO AKI Category 1, number of patients [3]: 500 | MAX KDIGO AKI Category 2 (%) [3]: (5.88) % | MAX KDIGO AKI Category 2, number of patients [3]: 199 | MAX KDIGO AKI Category 3 (%) [3]: (5.88) % | MAX KDIGO AKI Category 3, number of patients [3]: 199 | Odds Ratio [3, 15]: 0.90 | Odds Ratio [3, 7]: 0.457 | Odds Ratio [3, 8]: 0.988 | Odds Ratio (ICU patients; [9]): 0.736 | Odds Ratio (ICU patients; [16]): 0.879
